Assay results: the PolyMetriX glass transition set
± gives the standard deviation of the reports.

Q: With `*Oc1ccc(S(=O)(=O)c2ccc(Oc3ccc(C(C)(c4ccccc4)c4ccc(*)cc4)cc3)cc2)cc1` (repeat unit) as the compound, how does the glass transition temperature read?
A: 207.00 °C

Q: For `*Oc1ccc(C2(c3ccc(OC(*)=O)c(Cl)c3)CCCCC2)cc1Cl` (repeat unit), which glass transition temperature is on record?
A: 179.00 °C

Q: With `*CCCCCCC(=O)O*` (repeat unit) as the compound, how does the glass transition temperature read?
A: -14.00 °C

Q: With `*CC(*)c1cc(C)c(C)cc1C` (repeat unit) as the compound, how does the glass transition temperature read?
A: 104.00 °C

Q: For `*CC(*)(C)C(=O)OCCCCCC(=O)Oc1ccc(OC(=O)c2ccc(OC)cc2)cc1` (repeat unit), which glass transition temperature is on record?
A: 40.00 °C

Q: Which glass transition temperature does the source give for `*C(=O)Nc1ccc(Oc2c(C)cc(C(C)(C)c3cc(C)c(Oc4ccc(NC(=O)c5ccc6c(c5)C(=O)N(c5ccc(Oc7ccc(C8(c9ccc(Oc%10ccc(N%11C(=O)c%12ccc(*)cc%12C%11=O)cc%10)cc9)CC9CC8C8CCCC98)cc7)cc5)C6=O)cc4)c(C)c3)cc2C)cc1` (repeat unit) here?
A: 276.00 °C

Q: With `*CCCCCCOC(=O)OCCCCCCCCCCOC(=O)OCCCCCCn1c(=O)c2cc3c(=O)n(*)c(=O)c3cc2c1=O` (repeat unit) as the compound, how does the glass transition temperature read?
A: -2.00 °C

Q: For `*CC(*)CCI` (repeat unit), which glass transition temperature is on record?
A: 70.00 °C

Q: Which glass transition temperature does the source give for `*CCCCCCOc1ccc(-c2ccc(O*)c3ccccc23)c2ccccc12` (repeat unit) here?
A: 109.00 °C

Q: Which glass transition temperature does the source give for `*C(=O)Nc1ccc(-c2cc(-c3ccccc3)cc(-c3ccc(NC(=O)c4ccc5c(c4)C(=O)N(c4ccc(NC(=O)Nc6ccc(N7C(=O)c8ccc(*)cc8C7=O)cc6)cc4)C5=O)cc3)n2)cc1` (repeat unit) here?
A: 215.00 °C

Q: For `*C(=O)Nc1ccc(Oc2ccc(S(=O)(=O)c3ccc(Oc4ccc(NC(=O)c5ccc6c(c5)C(=O)N(c5ccc(Oc7ccc(C8(c9ccc(Oc%10ccc(N%11C(=O)c%12ccc(*)cc%12C%11=O)cc%10)cc9)NC(=O)c9ccccc98)cc7)cc5)C6=O)cc4)cc3)cc2)cc1` (repeat unit), which glass transition temperature is on record?
A: 302.00 °C

Q: Which glass transition temperature does the source give for `*Oc1ccc(NC(=O)CCCCC(=O)Nc2ccc(OC3COC4C(*)COC34)cc2)cc1` (repeat unit) here?
A: 150.00 °C

Q: With `*CC(*)OC(=O)c1ccc(OC(=O)CCC)cc1` (repeat unit) as the compound, how does the glass transition temperature read?
A: 61.00 °C

Q: With `*c1ccc2c(c1)C(=O)N(c1cccc(Oc3cccc(Oc4cccc(N5C(=O)c6ccc(C(*)(C(F)(F)F)C(F)(F)F)cc6C5=O)c4)c3)c1)C2=O` (repeat unit) as the compound, how does the glass transition temperature read?
A: 206.50 ± 0.7 °C

Q: Which glass transition temperature does the source give for `*CCOCCOCCOc1cccc(NC(=O)c2ccc(C(=O)Nc3cccc(O*)c3)cc2)c1` (repeat unit) here?
A: 116.00 °C

Q: With `*O[Si](*)(C)C=C` (repeat unit) as the compound, how does the glass transition temperature read?
A: -129.00 °C

Q: Which glass transition temperature does the source give for `*CC(*)(CCCCCCCC)C(=O)OC` (repeat unit) here?
A: 34.00 °C

Q: For `*/C=C/C1CC(*)C2C(=O)N(CCCCCCCCCCCC)C(=O)C12` (repeat unit), which glass transition temperature is on record?
A: 50.00 °C

Q: With `*Nc1ccc(Cc2ccc(NC(=O)Nc3ccccc3CCc3ccc(NC(*)=O)cc3)cc2)cc1` (repeat unit) as the compound, how does the glass transition temperature read?
A: 217.00 °C

Q: With `*CCCCCCCCCCCCCCNC(=O)NCc1ccc(CNC(=O)N*)cc1` (repeat unit) as the compound, how does the glass transition temperature read?
A: 54.00 °C

Q: With `*Nc1ccc(Cc2ccc(NC(=O)c3cc(C(*)=O)cc(N4C(=O)C=CC4=O)c3)cc2)cc1` (repeat unit) as the compound, how does the glass transition temperature read?
A: 287.00 °C

Q: With `*CCCCCCCN1C(=O)c2ccc(Oc3ccc4c(c3)C(=O)N(*)C4=O)cc2C1=O` (repeat unit) as the compound, how does the glass transition temperature read?
A: 110.00 °C

Q: For `*c1cc(/C=N/C(=S)Nc2ccc(-n3c(=O)c4cc5c(=O)n(*)c(=O)c5cc4c3=O)cc2)ccc1Cl` (repeat unit), which glass transition temperature is on record?
A: 276.00 °C

Q: For `*CC(*)c1ccc(Cn2c3ccccc3c3ccccc32)cc1` (repeat unit), which glass transition temperature is on record?
A: 166.00 °C

Q: With `*CCCC(C)(C)CNC(=O)c1cccc(C(=O)N*)c1` (repeat unit) as the compound, how does the glass transition temperature read?
A: 153.00 °C

Q: With `*CC(C)CO*` (repeat unit) as the compound, how does the glass transition temperature read?
A: -55.00 °C

Q: With `*CCCCCC(=O)Oc1ccc2ccc(OC(=O)c3ccc4c(c3)C(=O)N(*)C4=O)cc2c1` (repeat unit) as the compound, how does the glass transition temperature read?
A: 113.00 °C

Q: With `*c1c(C)cc(C(C)(C)c2cc(C)c(S(*)(=O)=O)c(C)c2)cc1C` (repeat unit) as the compound, how does the glass transition temperature read?
A: 230.00 °C

Q: Which glass transition temperature does the source give for `*C(=O)c1ccc(C(C)(CC)c2ccc(C(=O)N3CCN(*)CC3)cc2)cc1` (repeat unit) here?
A: 232.00 °C

Q: With `*C(=O)c1ccc2c(c1)C(=O)N(c1cccc(C(=O)c3ccc(C(=O)c4cccc(N5C(=O)c6ccc(*)cc6C5=O)c4)cc3)c1)C2=O` (repeat unit) as the compound, how does the glass transition temperature read?
A: 240.00 °C

Q: Which glass transition temperature does the source give for `*c1cc(C(=O)NCCCCCCCCCCCCCC)cc(N2C(=O)c3ccc(-c4ccc5c(c4)C(=O)N(*)C5=O)cc3C2=O)c1` (repeat unit) here?
A: 247.60 °C

Q: Which glass transition temperature does the source give for `*Sc1ccc(C(=O)c2ccc(C(C)(C)c3ccc(C(=O)c4ccc(*)cc4)cc3)cc2)cc1` (repeat unit) here?
A: 175.00 °C

Q: Which glass transition temperature does the source give for `*CC(*)(C)C(=O)OC(C)CC` (repeat unit) [Poly(sec-butyl methacrylate)] here?
A: 57 ± 2.6 °C

Q: For `*CC(*)c1ccccc1F` (repeat unit), which glass transition temperature is on record?
A: 160.50 °C

Q: With `*Oc1ccc(C(c2ccc(Oc3ccc(C(=O)c4ccc(C(c5ccc(C(=O)c6ccc(*)cc6)cc5)(C(F)(F)F)C(F)(F)F)cc4)cc3)cc2)(C(F)(F)F)C(F)(F)F)cc1` (repeat unit) as the compound, how does the glass transition temperature read?
A: 185.00 °C

Q: With `*CCCCCCOC(=O)NNC(=O)CCCCCCCCC(=O)NNC(=O)O*` (repeat unit) as the compound, how does the glass transition temperature read?
A: 45.00 °C

Q: With `*CCCCCCCOC(=O)c1ccc2cc(C(=O)O*)ccc2c1` (repeat unit) as the compound, how does the glass transition temperature read?
A: 52.50 °C

Q: For `*Oc1c(-c2ccccc2)cc(*)cc1-c1cccc(-c2ccccc2)c1-c1ccccc1` (repeat unit), which glass transition temperature is on record?
A: 212.00 °C

Q: For `*c1ccc(Oc2ccc(N3C(=O)c4ccc(Oc5ccc(C(=O)c6ccc(Oc7ccc8c(c7)C(=O)N(*)C8=O)cc6)cc5)cc4C3=O)cc2)cc1` (repeat unit), which glass transition temperature is on record?
A: 210.00 °C

Q: Which glass transition temperature does the source give for `*C1CCC(CC2CCC(N3C(=O)C4C5C=CC(C6C(=O)N(*)C(=O)C56)C4C3=O)C(C)C2)CC1C` (repeat unit) here?
A: 241.00 °C

Q: With `*C(=O)c1ccc2c(c1)C(=O)N(c1ccc(/C=C/c3ccc(N4C(=O)c5ccc(*)cc5C4=O)cc3S(=O)(=O)[O][Na])c(S(=O)(=O)[O][Na])c1)C2=O` (repeat unit) as the compound, how does the glass transition temperature read?
A: 229.00 °C

Q: With `*c1ccc(C(C)(C)c2ccc(C(C)(C)c3ccc(N4C(=O)c5ccc(Oc6cccc7c(Oc8ccc9c(c8)C(=O)N(*)C9=O)cccc67)cc5C4=O)cc3)cc2)cc1` (repeat unit) as the compound, how does the glass transition temperature read?
A: 253.00 °C

Q: Which glass transition temperature does the source give for `*Nc1cc(NC(=O)Nc2ccc(NC(*)=O)cc2)cc(C(=O)Nc2ccc3c(c2)C(=O)c2ccccc2C3=O)c1` (repeat unit) here?
A: 184.00 °C

Q: Which glass transition temperature does the source give for `*NC1CC(C)(C)CC(C)(CNC(=O)CCCCC(*)=O)C1` (repeat unit) here?
A: 150.80 °C

Q: For `*CC(*)C(=O)OCCSCC#N` (repeat unit), which glass transition temperature is on record?
A: -24.00 °C

Q: For `*Oc1ccc(C(=O)c2cccc(NC(=O)c3ccc(C(=O)Nc4cccc(C(=O)c5ccc(*)cc5)c4)cc3)c2)cc1` (repeat unit), which glass transition temperature is on record?
A: 189.00 °C

Q: With `*C(CC(C)C)C(=O)Nc1ccc(Oc2ccc(NC(=O)Nc3ccc(Cc4ccc(NC(=O)Nc5ccc(Oc6ccc(NC(=O)C(CC(C)C)n7c(=O)c8cc9c(=O)n(*)c(=O)c9cc8c7=O)cc6)cc5)cc4)cc3)cc2)cc1` (repeat unit) as the compound, how does the glass transition temperature read?
A: 181.40 °C

Q: For `*CC(*)(C)C(=O)NC(=O)OC(C)COc1c(Br)cc(S(=O)(=O)c2cc(Br)c(OCC(C)O)c(Br)c2)cc1Br` (repeat unit), which glass transition temperature is on record?
A: 45.00 °C

Q: With `*=NP(=NP(=NC(=*)Oc1ccc(C(C)(C)C)cc1)(Oc1ccc(C(C)(C)C)cc1)Oc1ccc(C(C)(C)C)cc1)(Oc1ccc(C(C)(C)C)cc1)Oc1ccc(C(C)(C)C)cc1` (repeat unit) as the compound, how does the glass transition temperature read?
A: 74.00 °C

Q: For `*c1ccc2c(c1)C(=O)N(c1ccc(-c3ccc(N4C(=O)c5ccc(C(*)(c6ccccc6)C(F)(F)F)cc5C4=O)cc3C(F)(F)F)c(C(F)(F)F)c1)C2=O` (repeat unit), which glass transition temperature is on record?
A: 280.00 °C

Q: Which glass transition temperature does the source give for `*c1ccc(Oc2ccc(-c3cnc4ccc(-c5ccc6ncc(*)nc6c5)cc4n3)cc2)cc1` (repeat unit) here?
A: 305.00 °C

Q: For `*C(=O)Nc1ccc(Oc2ccc(Oc3ccc(NC(=O)c4ccc5c(c4)C(=O)N(c4ccc(S(=O)(=O)c6ccc(N7C(=O)c8ccc(*)cc8C7=O)cc6)cc4)C5=O)cc3)cc2)cc1` (repeat unit), which glass transition temperature is on record?
A: 243.00 °C

Q: For `*c1ccc(Oc2ccc(C(=O)c3ccc(-c4ccc(C(=O)c5ccc(Oc6ccc(-c7nc(-c8ccc(-c9nc(*)c(-c%10ccccc%10)[nH]9)cc8)[nH]c7-c7ccccc7)cc6)cc5)cc4)cc3)cc2)cc1` (repeat unit), which glass transition temperature is on record?
A: 273.00 °C

Q: For `*c1ccc(OC(=O)CCCCCCCCCCCCCCCCCCCCC(=O)Oc2ccc(N3C(=O)c4ccc(-c5ccc6c(c5)C(=O)N(*)C6=O)cc4C3=O)cc2)cc1` (repeat unit), which glass transition temperature is on record?
A: 140.00 °C

Q: For `*OC(CCCCCCC=C)CC(*)=O` (repeat unit), which glass transition temperature is on record?
A: -50.00 °C

Q: With `*OC(=O)OCCOCCOCCOC(=O)OC1COC2C(*)COC12` (repeat unit) as the compound, how does the glass transition temperature read?
A: 17.00 °C

Q: With `*C(*)O` (repeat unit) as the compound, how does the glass transition temperature read?
A: 134.00 °C

Q: For `*c1ccc(Oc2ccc(Oc3ccc(N4C(=O)c5ccc(Oc6cc7ccccc7cc6Oc6ccc7c(c6)C(=O)N(*)C7=O)cc5C4=O)cc3)cc2)cc1` (repeat unit), which glass transition temperature is on record?
A: 224.50 °C

Q: Which glass transition temperature does the source give for `*Oc1ccc(C(=O)c2ccc(C(=O)c3ccc(*)cc3)cc2)cc1` (repeat unit) here?
A: 157.00 °C

Q: With `*c1ccc(C(=O)Nc2ccc(Oc3ccc(NC(=O)c4ccc(-n5c(=O)c6cc7c(=O)n(*)c(=O)c7cc6c5=O)cc4)cc3)cc2)cc1` (repeat unit) as the compound, how does the glass transition temperature read?
A: 360.00 °C

Q: With `*Oc1cc(Cl)cc(Cl)c1*` (repeat unit) as the compound, how does the glass transition temperature read?
A: 165.00 °C

Q: With `*CC(*)(F)C(C)=O` (repeat unit) as the compound, how does the glass transition temperature read?
A: 142.00 °C

Q: Which glass transition temperature does the source give for `*c1ccc2c(c1)C(=O)N(c1ccc(Cc3ccc(N4C(=O)c5ccc(C(C)(C)CCCCC(*)(C)C)cc5C4=O)cc3)cc1)C2=O` (repeat unit) here?
A: 169.90 °C

Q: With `*CC(*)c1ccc(F)cc1` (repeat unit) [Poly(4-fluorostyrene)] as the compound, how does the glass transition temperature read?
A: 104 ± 4.9 °C

Q: Which glass transition temperature does the source give for `*CC(C)C(C)COC(=O)c1ccc(C(=O)O*)cc1` (repeat unit) here?
A: 37.50 °C
